Results on 1 molecule are retold here after patent US20030073850A1, “4-Imidazole derivatives of benzyl and restricted benzyl sulfonamides, sulfamides, ureas, carbamates, and amides and their use” (priority 1998, published 2003).

Molecules are shown by their SMILES.

For one assay, the target named is T1, α1A (rabbit urethra) (Oryctolagus cuniculus, UniProt O02824).
T1 construct: tested for α1A functional activity using rabbit urethra; from tissue; host or cells: rabbit urethra (female New Zealand white rabbits)
T1 sequence (O02824 1-466): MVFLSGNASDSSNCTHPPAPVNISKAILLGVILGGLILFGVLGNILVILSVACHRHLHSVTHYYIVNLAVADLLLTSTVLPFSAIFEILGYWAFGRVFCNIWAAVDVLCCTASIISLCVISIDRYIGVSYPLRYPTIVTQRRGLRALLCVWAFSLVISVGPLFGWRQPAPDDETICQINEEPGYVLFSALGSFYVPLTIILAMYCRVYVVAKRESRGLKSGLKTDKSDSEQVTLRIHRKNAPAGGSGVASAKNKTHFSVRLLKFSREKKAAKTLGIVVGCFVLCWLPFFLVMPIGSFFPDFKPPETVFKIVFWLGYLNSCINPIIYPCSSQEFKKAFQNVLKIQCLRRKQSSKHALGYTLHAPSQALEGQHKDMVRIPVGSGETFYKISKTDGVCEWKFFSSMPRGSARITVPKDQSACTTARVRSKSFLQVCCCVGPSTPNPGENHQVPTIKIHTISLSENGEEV
Put plainly: Agonist tissue response, contraction of rabbit urethra. It is filed as biochemical. The note with it: values without asterisk, read-out: Agonist Tissue Response (pD2) α1A (rab ureth) (converted). As for the experimental part:
Most of the compounds were tested for α1A functional activity using rabbit urethra as follows. Female New Zealand white rabbits (2.0-3.5 Kg) were sedated with CO2 and decapitated. […] Subsequent experimental conditions were as described above for the other tissues. Agonist concentration response curves were cumulative except for the vas deferens assay in which the transient response made such measurements impractical.

Assay [1] addresses T2, α1d (rat receptor expressed in mouse fibroblasts) (Rattus norvegicus, UniProt P23944).
T2 construct: expressed in transfected cells; host or cells: mouse fibroblasts
T2 sequence (P23944 1-561): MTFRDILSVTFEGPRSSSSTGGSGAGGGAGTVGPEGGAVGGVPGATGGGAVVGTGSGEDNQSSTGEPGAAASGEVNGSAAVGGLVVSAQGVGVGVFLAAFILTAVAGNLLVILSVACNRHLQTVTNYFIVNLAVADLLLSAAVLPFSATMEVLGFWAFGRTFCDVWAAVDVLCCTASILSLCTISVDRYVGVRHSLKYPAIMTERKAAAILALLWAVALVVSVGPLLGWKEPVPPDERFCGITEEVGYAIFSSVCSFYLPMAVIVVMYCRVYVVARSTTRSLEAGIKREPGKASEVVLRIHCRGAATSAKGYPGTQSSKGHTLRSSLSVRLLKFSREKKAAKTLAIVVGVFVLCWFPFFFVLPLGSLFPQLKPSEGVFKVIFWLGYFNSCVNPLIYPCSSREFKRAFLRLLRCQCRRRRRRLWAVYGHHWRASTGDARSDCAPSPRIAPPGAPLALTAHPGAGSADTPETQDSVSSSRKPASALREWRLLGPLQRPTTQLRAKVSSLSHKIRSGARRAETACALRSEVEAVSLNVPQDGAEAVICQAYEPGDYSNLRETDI
Put plainly: Radioligand binding, [3H]-prazosin, α1d. The conditions noted are these: rat receptor expressed in mouse fibroblasts, [3H]-prazosin; read-out: Radioligand Binding Ki α1d (Rat). The method, boiled down:
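[3H]-prazosin radioligand displacement; α1A from rat submaxillary gland tissue, α1b hamster and α1d rat receptors each expressed in mouse fibroblasts.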

The test system of a further assay is anesthetized dogs. Briefly: Intraurethral pressure (IUP) in anesthetized dogs. It is filed as in vivo, dog.

For orientation: Ki means the dissociation constant of the complex between target and ligand, obtained from inhibition or displacement. In the case of `CCS(=O)(=O)Nc1cccc2c1OCCC2c1c[nH]cn1` (single isomer, unassigned; (+)) [Example 95, (+) N-[4-(1H-imidazol-4-yl)-3,4-dihydro-2H-chromen-8-yl]ethanesulfonamide], on α1A (rabbit urethra), the EC50 is 1.38 µM. Also, in assay [1], the inhibition constant Ki stood at 10 µM. In addition, in the assay on anesthetized dogs (Canis lupus familiaris, iv dose causing a maximum increase in IUP of 5 mm Hg, anesthetized female Beagle dogs, read-out: Mean IUP ED5), the ED (5 mm Hg) worked out at 0.113 µmol/kg. Further, in the assay on anesthetized dogs (anesthetized dogs, iv), the “Mean Selectivity Ratio MAP ED20/IUP ED5” value was 0.99.
